The values below come from article PMC8082450, “Protein Serine/Threonine Phosphatase Type 2C of Leishmania mexicana” (Frontiers in Cellular and Infection Microbiology, 2021).

This assay addresses T1, LmxPP2C (Leishmania mexicana, UniProt E9AXF3).
T1 construct: gene LMXM_25_0750
T1 sequence (E9AXF3 1-406): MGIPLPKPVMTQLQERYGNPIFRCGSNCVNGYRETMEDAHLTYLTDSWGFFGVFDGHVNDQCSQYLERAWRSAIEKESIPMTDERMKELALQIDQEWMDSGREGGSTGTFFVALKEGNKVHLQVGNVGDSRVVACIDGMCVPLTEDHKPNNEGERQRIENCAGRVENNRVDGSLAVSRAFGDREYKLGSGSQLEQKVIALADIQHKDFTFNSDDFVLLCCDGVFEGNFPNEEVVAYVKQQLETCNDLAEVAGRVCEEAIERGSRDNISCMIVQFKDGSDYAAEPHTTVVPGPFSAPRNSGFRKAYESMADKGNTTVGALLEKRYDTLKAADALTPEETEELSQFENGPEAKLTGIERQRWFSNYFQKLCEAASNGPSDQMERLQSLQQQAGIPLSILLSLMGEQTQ
Briefly: phosphatase inhibition assay, p-NPP hydrolysis at […] nm. Type of assay: biochemical.

For the molecule `COC[C@@H]([C@H](O)[C@H](O)C(=O)NCC[C@H](C)c1nc(/C=C/C[C@@H]2O[C@]3(C[C@@H](O)[C@@H]2C)O[C@H]([C@H](C[C@H](O)[C@H](C)[C@H](O)[C@H](C)/C=C(C)/C(C)=C/C=C/C(C)=C\C#N)OC)[C@H](OP(=O)(O)O)C3(C)C)co1)N(C)C` [calyculin], the inhibition (usually how much of the control response was suppressed) at 0.005 µM (read-out: % inhibition at 5 nM) is 18%. For the molecule `C=C1[C@@H](O)[C@@H]2O[C@]3(CC[C@H](/C=C/[C@@H](C)[C@@H]4CC(C)=C[C@@]5(O[C@H](C[C@@](C)(O)C(=O)O)CC[C@H]5O)O4)O3)CC[C@H]2O[C@@H]1[C@@H](O)C[C@H](C)[C@H]1O[C@@]2(CCCCO2)CC[C@H]1C` [okadaic acid], the inhibition at 1 µM (read-out: % inhibition at 1 μM) amounted to 14%. As for `C[n+]1cc2c3c(ccc2c2ccc4cc5c(cc4c21)OCO5)OCO3` [sanguinarine], the inhibition at 20 µM is 81%.
